Test results as given in US8932597B2 (priority 2008, dated 2015).

What was measured:
[1] = tested on: HuM2e antibody 23K12; assay type: binding, human
[2] = tested on: anti-M2 human monoclonal antibody Z3G1; assay type: binding

Substance: 596 (SLLTEVETPIRNEWFCRCNDSSD; epitope peptide) [compound 596]
- Signal (peptides that bind to 23K21 and 8I10) [1]: 837
- Signal (peptides that show specific binding to Z3G1) [2]: 2493

Substance: 321 (ALLTEVETPIRNEWGCRCNDSSD; epitope peptide) [compound 321]
- Signal (peptides that bind to 23K21 and 8I10) [1]: 1794
- Signal (peptides that show specific binding to Z3G1) [2]: 2225

Substance: 513 (MCLLTEVGMSLLTEV; epitope peptide) [compound 513]
- Signal (peptides that bind to 23K21 and 8I10) [1]: 1032
- Signal (peptides that bind to Z3G1) [2]: 2697

Substance: 707 (SLLTEVETPIANEWGCRCNDSSD; epitope peptide) [compound 707]
- Signal (peptides that bind to 23K21 and 8I10) [1]: 708
- Signal (peptides that show specific binding to Z3G1) [2]: 2302

Substance: 672 (SLLTEVETPIRNEWGRRCNDSSD; epitope peptide) [compound 672]
- Signal (peptides that bind to 23K21 and 8I10) [1]: 735
- Signal (peptides that show specific binding to Z3G1) [2]: 2372

Substance: 328 (SLETEVETPIRNEWGCRCNDSSD; epitope peptide) [compound 328]
- Signal (peptides that bind to 23K21 and 8I10) [1]: 1720
- Signal (peptides that show specific binding to Z3G1) [2]: 1963

Substance: 714 (SLLTEVETPIRNEWCCRCNDSSD; epitope peptide) [compound 714]
- Signal (peptides that bind to 23K21 and 8I10) [1]: 704
- Signal (peptides that show specific binding to Z3G1) [2]: 2388

Substance: 583 (SLLTEVWTPIRNEWGCRCNDSSD; epitope peptide) [compound 583]
- Signal (peptides that bind to 23K21 and 8I10) [1]: 855
- Signal (peptides that show specific binding to Z3G1) [2]: 1889

Substance: 622 (SLLTEVETPIRMEWGCRCNDSSD; epitope peptide) [compound 622]
- Signal (peptides that bind to 23K21 and 8I10) [1]: 805
- Signal (peptides that show specific binding to Z3G1) [2]: 2385

Substance: 620 (SLLTEVETPIRFEWGCRCNDSSD; epitope peptide) [compound 620]
- Signal (peptides that bind to 23K21 and 8I10) [1]: 806
- Signal (peptides that show specific binding to Z3G1) [2]: 2364

Substance: 718 (SLLTEVECPIRNEWGCRCNDSSD; epitope peptide) [compound 718]
- Signal (peptides that bind to 23K21 and 8I10) [1]: 700
- Signal (peptides that show specific binding to Z3G1) [2]: 1974

Substance: 473 (SLSTEVETPIRNEWGCRCNDSSD; epitope peptide) [compound 473]
- Signal (peptides that bind to 23K21 and 8I10) [1]: 1217
- Signal (peptides that show specific binding to Z3G1) [2]: 2052

Substance: 683 (SLLTEVETPIRNEWGCACNDSSD; epitope peptide) [compound 683]
- Signal (peptides that bind to 23K21 and 8I10) [1]: 729
- Signal (peptides that show specific binding to Z3G1) [2]: 2301

Substance: 522 (SLLTMVETPIRNEWGCRCNDSSD; epitope peptide) [compound 522]
- Signal (peptides that bind to 23K21 and 8I10) [1]: 1011
- Signal (peptides that show specific binding to Z3G1) [2]: 1244

Substance: 215 (CSLLTEVETCLTEVETPIRNEWGSRC; epitope peptide) [compound 215]
- Signal (peptides that bind to 23K21 and 8I10) [1]: 958
- Signal (peptides that show specific binding to Z3G1) [2]: 2328

Substance: 685 (SLLTEVETPIRNVWGCRCNDSSD; epitope peptide) [compound 685]
- Signal (peptides that bind to 23K21 and 8I10) [1]: 728
- Signal (peptides that show specific binding to Z3G1) [2]: 2281

Substance: 529 (SLLTEVETNIRNEWGCRCNDSSD; epitope peptide) [compound 529]
- Signal (peptides that bind to 23K21 and 8I10) [1]: 978
- Signal (peptides that show specific binding to Z3G1) [2]: 2253

Substance: 393 (SLLTEVETPIRNEWGCRCNLSSD; epitope peptide) [compound 393]
- Signal (peptides that bind to 23K21 and 8I10) [1]: 1334
- Signal (peptides that bind to Z3G1) [2]: 2634

Substance: 318 (SLLTEVETPIRNEWGCRCKDSSD; epitope peptide) [compound 318]
- Signal (peptides that bind to 23K21 and 8I10) [1]: 1802
- Signal (peptides that bind to Z3G1) [2]: 2549

Substance: 226 (CTEVETPIRNEWGSRSCSLLTEVETC; epitope peptide) [compound 226]
- Signal (peptides that bind to 23K21 and 8I10) [1]: 891
- Signal (peptides that show specific binding to Z3G1) [2]: 2140

Substance: 320 (SLLTEVGSLLTEV; epitope peptide) [compound 320]
- Signal (peptides that bind to 23K21 and 8I10) [1]: 1794
- Signal (peptides that show specific binding to Z3G1) [2]: 2530

Substance: 553 (SLLTEVTTPIRNEWGCRCNDSSD; epitope peptide) [compound 553]
- Signal (peptides that bind to 23K21 and 8I10) [1]: 909
- Signal (peptides that show specific binding to Z3G1) [2]: 2102

Substance: 467 (SLLTEVENPIRNEWGCRCNDSSD; epitope peptide) [compound 467]
- Signal (peptides that bind to 23K21 and 8I10) [1]: 1245
- Signal (peptides that show specific binding to Z3G1) [2]: 2549

Substance: 423 (SLLTEVETPIRNEWGCRCNDSHD; epitope peptide) [compound 423]
- Signal (peptides that bind to 23K21 and 8I10) [1]: 782
- Signal (peptides that bind to Z3G1) [2]: 2353

Substance: 368 (SLLTEVETPIRNEWG; epitope peptide) [compound 368]
- Signal (peptides that bind to 23K21 and 8I10) [1]: 1486
- Signal (peptides that bind to Z3G1) [2]: 2429

Substance: 360 (CSLLTECGCSLLTEV; epitope peptide) [compound 360]
- Signal (peptides that bind to 23K21 and 8I10) [1]: 1534
- Signal (peptides that bind to Z3G1) [2]: 1427

Substance: 616 (SLLTEVETPIRNPWGCRCNDSSD; epitope peptide) [compound 616]
- Signal (peptides that bind to 23K21 and 8I10) [1]: 808
- Signal (peptides that show specific binding to Z3G1) [2]: 2288

Substance: 443 (SLLTEVETPIRNEWGCR; epitope peptide) [compound 443]
- Signal (peptides that bind to 23K21 and 8I10) [1]: 864
- Signal (peptides that bind to Z3G1) [2]: 2444

Substance: 517 (SLLTEVETPIRNEMGCRCNDSSD; epitope peptide) [compound 517]
- Signal (peptides that bind to 23K21 and 8I10) [1]: 1020
- Signal (peptides that show specific binding to Z3G1) [2]: 2398

Substance: 679 (SLLTEVETPIRNEWGCECNDSSD; epitope peptide) [compound 679]
- Signal (peptides that bind to 23K21 and 8I10) [1]: 730
- Signal (peptides that show specific binding to Z3G1) [2]: 2148

Substance: 398 (SLLTEVETPIRNEWGCRCNRSSD; epitope peptide) [compound 398]
- Signal (peptides that bind to 23K21 and 8I10) [1]: 890
- Signal (peptides that bind to Z3G1) [2]: 2514

Substance: 650 (SLLTEVETPVRNEWGCRCNDSSD; epitope peptide) [compound 650]
- Signal (peptides that bind to 23K21 and 8I10) [1]: 758
- Signal (peptides that show specific binding to Z3G1) [2]: 2331

Substance: 329 (SLLTEVGSCLCEC; epitope peptide) [compound 329]
- Signal (peptides that bind to 23K21 and 8I10) [1]: 1708
- Signal (peptides that show specific binding to Z3G1) [2]: 2558

Substance: 420 (SLLTEVETPIRNEWGCRCNDSCD; epitope peptide) [compound 420]
- Signal (peptides that bind to 23K21 and 8I10) [1]: 725
- Signal (peptides that bind to Z3G1) [2]: 2269

Substance: 716 (SLLTEVETPIRNEFGCRCNDSSD; epitope peptide) [compound 716]
- Signal (peptides that bind to 23K21 and 8I10) [1]: 702
- Signal (peptides that show specific binding to Z3G1) [2]: 2444

Substance: 647 (SLLTEVETPIRNEWGHRCNDSSD; epitope peptide) [compound 647]
- Signal (peptides that bind to 23K21 and 8I10) [1]: 763
- Signal (peptides that show specific binding to Z3G1) [2]: 2113

Substance: 602 (SLLTEVETEIRNEWGCRCNDSSD; epitope peptide) [compound 602]
- Signal (peptides that bind to 23K21 and 8I10) [1]: 828
- Signal (peptides that show specific binding to Z3G1) [2]: 2368

Substance: 426 (SLLTEVETPIRNEWGCRCNDSLD; epitope peptide) [compound 426]
- Signal (peptides that bind to 23K21 and 8I10) [1]: 779
- Signal (peptides that bind to Z3G1) [2]: 2400

Substance: 662 (SLLTEVETPIRNFWGCRCNDSSD; epitope peptide) [compound 662]
- Signal (peptides that bind to 23K21 and 8I10) [1]: 747
- Signal (peptides that show specific binding to Z3G1) [2]: 2417

Substance: 615 (SLLTEVETPIRNEWGCDCNDSSD; epitope peptide) [compound 615]
- Signal (peptides that bind to 23K21 and 8I10) [1]: 810
- Signal (peptides that show specific binding to Z3G1) [2]: 2207

Substance: 699 (SLLTEVETPIRNEWGCRYNDSSD; epitope peptide) [compound 699]
- Signal (peptides that bind to 23K21 and 8I10) [1]: 716
- Signal (peptides that bind to Z3G1) [2]: 2169

Substance: 713 (SLLTEVETPIRNEWGQRCNDSSD; epitope peptide) [compound 713]
- Signal (peptides that bind to 23K21 and 8I10) [1]: 705
- Signal (peptides that show specific binding to Z3G1) [2]: 2369

Substance: 594 (SLLTEVQTPIRNEWGCRCNDSSD; epitope peptide) [compound 594]
- Signal (peptides that bind to 23K21 and 8I10) [1]: 838
- Signal (peptides that show specific binding to Z3G1) [2]: 2289

Substance: 418 (SLLTEVETPIRNEWGCRCNDWSD; epitope peptide) [compound 418]
- Signal (peptides that bind to 23K21 and 8I10) [1]: 929
- Signal (peptides that bind to Z3G1) [2]: 2491

Substance: 694 (SLLTEVETPIRNEWGCRCNESSD; epitope peptide) [compound 694]
- Signal (peptides that bind to 23K21 and 8I10) [1]: 720
- Signal (peptides that bind to Z3G1) [2]: 2282

Substance: 557 (MSCLTEVGCSLLTEV; epitope peptide) [compound 557]
- Signal (peptides that bind to 23K21 and 8I10) [1]: 899
- Signal (peptides that bind to Z3G1) [2]: 2506

Substance: 435 (SLLTEVETP; epitope peptide) [compound 435]
- Signal (peptides that bind to 23K21 and 8I10) [1]: 899
- Signal (peptides that bind to Z3G1) [2]: 2380

Substance: 284 (ASLLTEVGSLLTCV; epitope peptide) [compound 284]
- Signal (peptides that bind to 23K21 and 8I10) [1]: 2443
- Signal (peptides that show specific binding to Z3G1) [2]: 2358

Substance: 465 (SLLTEVETPIRNEWGCRCNKSSD; epitope peptide) [compound 465]
- Signal (peptides that bind to 23K21 and 8I10) [1]: 1254
- Signal (peptides that bind to Z3G1) [2]: 2597

Substance: 385 (CSLLTEVGCLCTCV; epitope peptide) [compound 385]
- Signal (peptides that bind to 23K21 and 8I10) [1]: 1375
- Signal (peptides that show specific binding to Z3G1) [2]: 2474

Substance: 536 (MCLCTCVGCSLLTEV; epitope peptide) [compound 536]
- Signal (peptides that bind to 23K21 and 8I10) [1]: 954
- Signal (peptides that bind to Z3G1) [2]: 2241

Substance: 611 (SLLTEVETRIRNEWGCRCNDSSD; epitope peptide) [compound 611]
- Signal (peptides that bind to 23K21 and 8I10) [1]: 813
- Signal (peptides that show specific binding to Z3G1) [2]: 2159

Substance: 357 (SLLTEVETPIPNEWGCRCNDSSD; epitope peptide) [compound 357]
- Signal (peptides that bind to 23K21 and 8I10) [1]: 1548
- Signal (peptides that show specific binding to Z3G1) [2]: 2515

Substance: 300 (SLLTEVETKIRNEWGCRCNDSSD; epitope peptide) [compound 300]
- Signal (peptides that bind to 23K21 and 8I10) [1]: 1960
- Signal (peptides that show specific binding to Z3G1) [2]: 2485

Substance: 566 (SLLTEVCTPIRNEWGCRCNDSSD; epitope peptide) [compound 566]
- Signal (peptides that bind to 23K21 and 8I10) [1]: 881
- Signal (peptides that show specific binding to Z3G1) [2]: 1210

Substance: 364 (CSLLTEVGCSLLTEV; epitope peptide) [compound 364]
- Signal (peptides that bind to 23K21 and 8I10) [1]: 1499
- Signal (peptides that bind to Z3G1) [2]: 2503

Substance: SLLTEVGSLLTEV (epitope peptide) [SEQ ID NO: 320]
- Binding to 23K12 (in words) [1]: best 23k12 binder
- Binding to Z3G1 (in words) [2]: recognized
